# “And” between values parts separate entries of the source, which are not always exact repeats. Equal values may be shown once. “Also recorded” adds a separate entry of the source.
# Tests used:
# [1] = test system: Sprague-Dawley rats (pregnancy); settings: found by Alan Corbin (copending application Ser. No. 561,524), cited from earlier work
# [2] = test system: luteinizing hormone (LH) in the blood serum of ovariectomized rats; assay: LH release in ovariectomized rats pretreated with estradiol and progesterone; serum LH by radioimmunoassay; assay type: in vivo, rat
# Description: This fact was established, in vivo, by measuring the increase of LH (before and after administration of [2-methyl-Ala^6 ]LRH) in the blood serum of ovariectomized rats pretreated with estradiol and progesterone according to the procedure of Schally et al., J. Biol. Chem. 246, 7230 (1971). The LH concentration in the blood serum was determined by radioimmunoassy according to the procedure of Berson et al., Metabolism 13, 1135 (1964). The results of this test are as follows: Dose nanograms ng LH/ml Serum % Dif- (ng) Animal No. Pre Post erence ______________________________________ 10 1 404.92 932.87 […] 10 2 541.37 1062.03 96.17 10 3 441.25 1568.03 255.43 10 4 459.07 1082.72 135.85 10 5 759.11 1681.84 111.52 No. of observations 5 5 5 Mean 523.34 1265.56 145.87 Standard error 70.34 150.08 28.28 T-value 5.1586 P-value 0.0080 ______________________________________
smiles,measurement,setting,value
"CC(C)C[C@H](NC(=O)C(C)(C)NC(=O)[C@H](Cc1ccc(O)cc1)NC(=O)[C@H](CO)NC(=O)[C@H](Cc1c[nH]c2ccccc12)NC(=O)[C@H](Cc1c[nH]cn1)NC(=O)[C@@H]1CCC(=O)N1)C(=O)N[C@@H](CCCNC(=N)N)C(=O)N1CCC[C@H]1C(=O)NCC(N)=O [[2-methyl-Ala^6]LRH, L-(5-oxoprolyl)-L-histidyl-L-tryptophyl-L-seryl-L-tyrosyl-2-methylalanyl-L-leucyl-L-arginyl-L-prolylglycinamide]",pregnancies prevented,[1]; 500 micrograms per day,100%
same,claudogenic/interceptive activity (in words),[1],active claudogenic/interceptive agent
same,"ng LH/ml Serum, Post (Mean)","[2]; dose 10 ng, mean of 5 ovariectomized, estradiol/progesterone-pretreated rats, after administration (pre mean 523.34), standard error 150.08",1265.56 ng LH/ml
same,"% Difference of serum LH, pre vs post (Mean)","[2]; dose 10 ng, mean of 5 rats, standard error 28.28, P-value 0.0080",145.87%
same,"% Difference of serum LH, pre vs post (individual animals No. 1-5)","[2]; dose 10 ng, single animals 1 to 5 in order",255.43% and 135.85% and 111.52% and 103.38% and 96.17%
same,"ng LH/ml Serum, Post (individual animals No. 1-5)","[2]; dose 10 ng, single animals 1 to 5 in order, after administration",932.87 ng LH/ml and 1062.03 ng LH/ml and 1568.03 ng LH/ml and 1082.72 ng LH/ml and 1681.84 ng LH/ml
same,LH-releasing / LRH agonist activity (in words),"[2]; in vivo, ovariectomized rats pretreated with estradiol and progesterone",active releaser of luteinizing hormone (LH); also recorded: active LRH agonist
